One series concerns MRSA isolate 1096. Description: microbe, parasite or virus in culture. The format is cell-based, Staphylococcus aureus. On the procedure:
(§1) The MIC and MBC of the purified peptides from SPR-20 were determined by broth microdilution assay following a standard guideline. S. aureus TISTR 517 and MRSA isolate 142, 1096, and 2468 as bacterial strains were cultured in MH agar at 37 °C for 18 h. […] The cells were then diluted to 5 × 10^6 CFU/mL using cation-adjusted Mueller Hinton broth (CAMHB). The diluted cell suspension (10 μL) was transferred to each well of a 96-well plate. The purified peptide in the total volume of 100 µL was added to each well to obtain the final concentrations between 0.5 and 64 µg/mL. The standard antibiotics (vancomycin and cefoxitin) (Sigma-Aldrich Co., St. Louis, MO, USA) and antibiotic-free samples were the positive and negative controls, respectively. CAMHB without tested bacteria was used as a blank. The 96-well plates were incubated at 37 °C for 24 h, and the experiment was performed in triplicate for each strain. […] Subsequently, 100 µL of each dilution was spread on MH agar and then incubated at 37 °C for 24 h.

The test system of the next series is MRSA isolate 142. Description: microbe, parasite or virus in culture. The format is cell-based, Staphylococcus aureus. Here is the method:
as §1

In series [1] the test system is MRSA isolate 2468. Description: microbe, parasite or virus in culture. It is filed as cell-based, Staphylococcus aureus. On the procedure:
as §1

Series [2] has as its system S. aureus TISTR 517. Description: microbe, parasite or virus in culture. The format is cell-based, Staphylococcus aureus. On the procedure: as §1
Series [3] has as its system S. aureus TISTR 517 and MRSA strains. Kind of series: microbe, parasite or virus in culture. It is filed as cell-based, Staphylococcus aureus. To be noted: Staphylococcus aureus. Here is the method: as §1
In series [4] the test system is MRSA isolate 2468. Description: microbe, parasite or virus in culture. It is filed as cell-based, Staphylococcus aureus. The conditions noted are these: Staphylococcus aureus, 18 h, read-out: Corrected Zone of Inhibition. Here is the method: (§2) The antimicrobial activity was measured by an agar well diffusion test with some modified methods. In brief, single colonies of the tested strains were suspended in 0.85% NaCl, and then the OD at 625 nm was adjusted to 0.1. The cell suspensions were spread on MH agar, and the tested samples (100 μL) were introduced into each well before incubation at 37 °C for 24 h. Each experiment was performed in three independent replicates, and the inhibition zone was measured and expressed as mean ± SD.
(§3) The agar well diffusion test was performed in triplicate for potency determination, using S. aureus TISTR 517 and MRSA isolate 2468 as the tested bacteria. […] The remaining standard and sample solutions were transferred to the other 3 wells. The plates were incubated at 37 °C for 18 h.

Series [5] concerns S. aureus TISTR 517. Description: microbe, parasite or virus in culture. The format is cell-based, Staphylococcus aureus. To be noted: Staphylococcus aureus, TISTR517, 18 h, read-out: Corrected Zone of Inhibition. Here is the method: as §2, §3
For series [6] the following is noted: cited from earlier work. On the procedure:
With the highest activity, P1 was selected for further study on its stability and mechanism of action. P1 was thermostable as it maintained nearly all activity after exposure to 100 °C or autoclave conditions. The short-chain peptide with substantial β-strand and disordered structures was an important characteristic of P1. This peptide might be refolded to active conformation after heat treatment that conferred good thermal stability. Similarly, acidocin LCHV (11 residues) produced by Lactobacillus acidophilus n.v. Er 317/402 Narine was stable at 130 °C for 90 min [27]. […] The enzymatic stability of P1 was caused by the absence of aromatic amino acids, which are the specific cleavage sites of proteinase K and α-chymotrypsin. The presence of one lysine at the core sequence of P1 might lessen the sensitivity of trypsin [29].

Setting [7] is: Staphylococcus aureus, broth microdilution, CAMHB, 37 °C, 24 h, triplicate, read-out: MIC.
Where [8] appears, read: Staphylococcus aureus, TISTR517, 24 h.

The values that follow come from publication PMC9738727, “Purification and Characterization of Novel Anti-MRSA Peptides Produced by Brevibacillus sp. SPR-20” (Molecules, 2022).

Values after ≈ are worked out from the molar mass of the structure shown. Values joined by “and” are separate entries in the source; they are usually repeats but may differ in a detail not shown here. Equal values may be shown once. Read-outs that look alike come from different tables or passages of the source. Ends that are not written are not given here. Some results are limits rather than exact numbers.

Consider `CO[C@@]1(NC(=O)Cc2cccs2)C(=O)N2C(C(=O)O)=C(COC(N)=O)CS[C@@H]21` [Cefoxitin, cefoxitin, reference compound], for which the MIC with MRSA isolate 1096 (setting [7]) was > 64 µg/mL; with MRSA isolate 142 (setting [7]), > 64 µg/mL; with MRSA isolate 2468 [1] (setting [7]) it was > 64 µg/mL; with S. aureus TISTR 517 [2] (Staphylococcus aureus, TISTR517, broth microdilution, CAMHB, 37 °C, 24 h, triplicate, read-out: MIC), 2 µg/mL (≈ 4.68 µM); with S. aureus TISTR 517 [2] (broth microdilution, CAMHB, 37 °C, 24 h, triplicate), 2 µg/mL (≈ 4.68 µM); in series [3] (MRSA strains only, read-out: MIC), > 64 µg/mL. For the same compound, the MBC in the series on S. aureus TISTR 517 [2] (Staphylococcus aureus, TISTR517, dilutions spread on MH agar, 37 °C, 24 h, no colony, read-out: MBC) is 2 µg/mL (≈ 4.68 µM).

Take VVLNLLVKVLKYGK [Peptide P3]: the MBC with MRSA isolate 1096 (isolate 1096, 24 h) is 8 µg/mL; with MRSA isolate 142 (isolate 142, 24 h), 8 µg/mL; against MRSA isolate 2468 [1] (isolate 2468, 24 h), 8 µg/mL; in the series with S. aureus TISTR 517 [2] (TISTR 517, 24 h), 4 µg/mL. Moreover, the MIC against MRSA isolate 1096 (isolate 1096, 24 h) was 4 µg/mL; with MRSA isolate 142 (isolate 142, 24 h), 4 µg/mL; against MRSA isolate 2468 [1] (isolate 2468, 24 h), 4 µg/mL; in the series with S. aureus TISTR 517 [2] (TISTR 517, 24 h), 4 µg/mL.

Take VVVNLLVKVLKYAK [Peptide P4]: the MBC with MRSA isolate 1096 (isolate 1096, 24 h) is reported as 16 µg/mL; against MRSA isolate 142 (isolate 142, 24 h) it was 16 µg/mL; with MRSA isolate 2468 [1] (isolate 2468, 24 h), 16 µg/mL; with S. aureus TISTR 517 [2] (TISTR 517, 24 h) it was 8 µg/mL. The MIC with MRSA isolate 1096 (isolate 1096, 24 h) is 8 µg/mL; against MRSA isolate 142 (isolate 142, 24 h) it was 8 µg/mL; against MRSA isolate 2468 [1] (isolate 2468, 24 h), 8 µg/mL; with S. aureus TISTR 517 [2] (TISTR 517, 24 h), 8 µg/mL.

In the case of `CN[C@H](CC(C)C)C(=O)N[C@H]1C(=O)N[C@@H](CC(N)=O)C(=O)N[C@H]2C(=O)N[C@H]3C(=O)N[C@H](C(=O)N[C@H](C(=O)O)c4cc(O)cc(O)c4-c4cc3ccc4O)[C@H](O)c3ccc(c(Cl)c3)Oc3cc2cc(c3O[C@@H]2O[C@H](CO)[C@@H](O)[C@H](O)[C@H]2O[C@H]2C[C@](C)(N)[C@H](O)[C@H](C)O2)Oc2ccc(cc2Cl)[C@H]1O` [Vancomycin, vancomycin], in the series on MRSA isolate 2468 [4], the zone of inhibition at 50 µg/mL came out at 20.1 ± 0.29 mm, the zone of inhibition at 75 µg/mL turned out to be 21.2 ± 0.76 mm, the zone of inhibition at 100 µg/mL was 22 ± 0.57 mm and the zone of inhibition at 125 µg/mL was determined as 22.7 ± 0.61 mm. Moreover, in the series with MRSA isolate 2468 [4], the zone of inhibition at 150 µg/mL amounted to 23.36 ± 0.21 mm. In the series with S. aureus TISTR 517 [5], the zone of inhibition at 50 µg/mL amounted to 18.8 ± 0.61 mm, the zone of inhibition at 75 µg/mL amounted to 19.5 ± 0.52 mm, the zone of inhibition at 100 µg/mL came to 20.3 ± 0.41 mm and the zone of inhibition at 125 µg/mL was found to be 21.1 ± 0.41 mm. Besides, the zone of inhibition at 150 µg/mL in the series with S. aureus TISTR 517 [5] is 21.3 ± 0.36 mm. In the series with MRSA isolate 1096 (Staphylococcus aureus, 24 h), this compound displayed an MBC of 2 µg/mL (≈ 1.38 µM) and an MIC of 2 µg/mL (≈ 1.38 µM). Also, in the series on MRSA isolate 142 (Staphylococcus aureus, 24 h), the MBC is 2 µg/mL (≈ 1.38 µM) and the MIC was 2 µg/mL (≈ 1.38 µM). Besides, in the series on MRSA isolate 2468 [1] (Staphylococcus aureus, 24 h), the MBC was 2 µg/mL (≈ 1.38 µM) and the MIC amounted to 2 µg/mL (≈ 1.38 µM). In the series with S. aureus TISTR 517 [2] (setting [8]), this compound gave an MBC of 2 µg/mL (≈ 1.38 µM) and an MIC of 2 µg/mL (≈ 1.38 µM). The MIC in series [3] was 2 µg/mL and 1.38 µM.

Take VVLNLVVKLLKYAK [Peptide P5]: the MBC in the series on MRSA isolate 1096 (isolate 1096, 24 h) was determined as 32 µg/mL; in the series with MRSA isolate 142 (isolate 142, 24 h) it was 32 µg/mL; against MRSA isolate 2468 [1] (isolate 2468, 24 h), 32 µg/mL; in the series on S. aureus TISTR 517 [2] (TISTR 517, 24 h) it was 32 µg/mL. Moreover, the MIC amounted to 32 µg/mL in the series on MRSA isolate 1096 (isolate 1096, 24 h); 32 µg/mL against MRSA isolate 142 (isolate 142, 24 h); 32 µg/mL in the series on MRSA isolate 2468 [1] (isolate 2468, 24 h); 32 µg/mL against S. aureus TISTR 517 [2] (TISTR 517, 24 h).

“NVGVLNPPPLV [Acidocin LCHV, antimicrobial peptide produced by Lactobacillus acidophilus n.v; Er 317/402 Narine]”: the thermal stability result in series [6] (130 °C for 90 min) is reported as “stable”. For the same compound, the “effect of trypsin, pepsin, and proteinase K on activity” value in series [6] (according to a previous study) was “decreased the activity”.

With VVMNLLVKVLKYVV [Peptide P2], the MBC against MRSA isolate 1096 (isolate 1096, 24 h) came out at 64 µg/mL; with MRSA isolate 142 (isolate 142, 24 h) it was 64 µg/mL; against MRSA isolate 2468 [1] (isolate 2468, 24 h), 64 µg/mL; against S. aureus TISTR 517 [2] (TISTR 517, 24 h), 16 µg/mL. Also, the MIC against MRSA isolate 1096 (isolate 1096, 24 h) is 8 µg/mL; with MRSA isolate 142 (isolate 142, 24 h), 8 µg/mL; with MRSA isolate 2468 [1] (isolate 2468, 24 h), 8 µg/mL; in the series on S. aureus TISTR 517 [2] (TISTR 517, 24 h) it was 8 µg/mL.

For the compound “XVXVVVKVLKYLX [Brevilaterin V, antimicrobial peptide from Brevibacillus laterosporus S62-9]”, in series [6] (100 °C for 2 h), the “initial activity retained after heating” value is on record as 99%. Also, the “remaining activity with pepsin, trypsin, and proteinase K” value in series [6] is “more than 97%”.

What is called zone of inhibition is the extent of the growth-free halo in a diffusion test.
